Entries after “also recorded” stand apart in the source; their conditions may differ.

One experiment relates to NCI-H226. The conditions noted are these: pemetrexed, cell line NCI-H226; cited from earlier work.
Another experiment has as its system HCC-2998. Particulars: pemetrexed, cell line HCC-2998; cited from earlier work.
Another experiment relates to M14. The conditions noted are these: pemetrexed, cell line M14; cited from earlier work.
The next experiment deals with ME43. The conditions noted are these: pemetrexed, cell line me43; cited from earlier work.
Another experiment relates to Molt-4. Particulars: pemetrexed, cell line Molt-4; cited from earlier work.
The subject of the next experiment is MDA-MB-435. Particulars: pemetrexed, cell line MDA-MB-435; cited from earlier work.
For another experiment, the system named is MCF7. Particulars: pemetrexed, cell line MCF7; cited from earlier work.
For the next experiment, the system named is NSCLC cell line (H2030). The experiment can be described thus: Cell proliferation and drug sensitivity assay (MTT colorimetric assay, 96 hrs), H2030. The experiment is classed as cell-based. The procedure: Lung and ovarian cancer cell culture. The NSCLC cell lines (H23, H225, H322, H358, H441, H520, A549, H647, H838, H1650, H1651, H1666, H1734, H1793, H1838, H2030 and H2 126) were grown as recommended by the supplier (ATCC, Rockville, Mo.). The ovarian cancer cell lines (OCV AR-3, OVCAR-5, TOV-21G and TOV-1120) were grown as recommended by the supplier (ATCC, Rockville, Mo.). FUOV-1, a human ovarian carcinoma, was grown according to the supplier (DSMZ, Braunschweig, Germany). Ten additional cell lines (C13, OV2008, A2780-CP, A2780S, IGROV-1, T8, IMCC3, 1MCC5, SKOV3 and A200S) were provided by Dr. Patricia Kruk (University of South Florida, Fla.). These ten cell lines were grown in RPMI 1640, supplemented with 10% Fetal Bovine Serum, 1% Sodium pyruvate, and 1% non essential amino acids. Tissue culture media and Thiazolyl Blue Tetrazolium Bromide were purchased from Sigma Aldrich (St. Louis, Mo.). […]
Cell proliferation and Drug sensitivity assays. Optimal cell number and linear range of drug concentration were determined for each cell line and drug as described previously (Bild A, Yao G, Chang S T, et al: Oncogenic pathways signatures in human cancers as guide to targeted therapies. Nature 439(7074):353-357, 2006, Potti A, Dressman H K, Bild A, et al: Genomic signatures to guide the use of chemotherapeutics. Nature Medicine 12(11): 1294-1300, 2006). […]

For the molecule `Nc1nc2[nH]cc(CCc3ccc(C(=O)N[C@@H](CCC(=O)O)C(=O)O)cc3)c2c(=O)[nH]1` [Pemetrexed, pemetrexed], the “Resistant (Res) or Sensitive (Sen)” value with NCI-H226 is reported as “Sen”; in the experiment on HCC-2998, “Res”; with M14 it was “Sen”; with ME43 it was “Res”; in the experiment on Molt-4, “Res”; with MDA-MB-435, “Sen”. The “Resistant (Res) or Sensitive (Sen)” value in the experiment on MCF7 is on record as “Res”. In the experiment on NSCLC cell line (H2030) (H2030 first treated for four days with a taxane (docetaxel or paclitaxel)), the “sensitivity to subsequent pemetrexed exposure” value is recorded as “resistance to subsequent pemetrexed exposure was induced; also recorded: develops resistance”. For the same molecule, the sensitivity to pemetrexed entry in the experiment with NSCLC cell line (H2030) (H2030 first treated with pemetrexed) is given as “sensitive”.

The record behind these values is patent publication US20100273711A1, “INDIVIDUALIZED CANCER TREATMENTS” (priority 2007, published 2010).
